Data set [1] concerns Eubacterium limosum ATCC 8486. As to the kind of experiment: Incubation of IX and 8-PN with Eubacterium limosum for 13 days. Type of data set: in vitro ADME. As to conditions: E. limosum, 8-PN as substrate, 13 days. The protocol:
Eubacterium limosum ATCC 8486 and Peptostreptococcus productus ATCC 27340 were obtained from the German Collection of Microorganisms and Cell Cultures (DSMZ, Braunschweig, Germany). E. limosum was incubated for 13 days in Brain Heart Infusion broth (with 0.5 g/l cystein-HCl) with 25 mg/l of IX and 8-PN under anaerobic conditions (Table 2). This strain was able to convert IX into 8-PN. […] This feature is clearly different from the metabolic pathway as observed in liver microsomes wherein 8-PN is extensively further metabolised [Nikolic et al. (2005) J. of Mass Spectrom. 40, 289-299; Nikolic et al. (2004) Drug Metabolism and Disposition 32, 272-279].

Data set [2] has as its system fecal culture B supplemented with E. limosum. The data set is described as follows: Supplementation of selected E. limosum strain to non-converting fecal culture B incubated with IX. Type of data set: in vitro ADME, human. As to conditions: 8-PN concentration day one versus day seven. The protocol: The most efficient E. limosum strain, obtained from the selection experiment in example 2, was supplemented to the originally non-converting culture B of example 1, to examine the capacity of this strain to initiate the production of 8-PN in the complex environment of a fecal suspension. The strain was added to the culture in proportions ranging from 0% up to 100% (v/v). This mixture was incubated with 10% (v/v) of 25 mg/L IX for a period of seven days in Brain Heart Infusion broth (with 0.5 g/l cystein-HCl) under anaerobic conditions. The concentration of 8-PN was monitored every two days (FIG. 7).

For data set [3] the following is noted: cited from earlier work.
Data set [4] is described as follows: Incubation of X or IX with human fecal cultures A-D for 8 days, conversion products detected by HPLC. Type of data set: in vitro ADME. As to conditions: human, 25 mg/l substrate, 8 days anaerobic, average (stdev) molar percentage relative to dosed flavonoid. The protocol: (§1) Fecal slurries of 20% (w/v) fresh fecal samples were prepared by homogenizing the feces with phosphate buffered saline (0.1 M, pH 7) containing 1 g/l sodiumthioglycolate as reducing agent. The particulate material was removed by centrifugation (1 min, 500×g). The supernatant is hereafter called “the culture”.
(§2) The capacity of the cultures obtained from fecal samples A, B, C and D (further referred as cultures A-D) to degrade or transform the hop prenylflavonoid IX was tested by incubating the fecal cultures (10% (v/v)) in Brain Heart Infusion broth (with 0.5 g/l cystein-HCl) with 25 mg/l of isoxanthohumol for a period of 8 days under anaerobic conditions. Extracts of the incubations at days 0 and 8 were assayed for bioactive transformation products of IX using a Yeast Estrogenic Screen, according to De Boever et al. (2001) Env. Health Perspectives 109, 691-697, based on Routledge & Sumpter (1996) Environ. Toxicol. Chem. 15, 241-248. In brief, Saccharomyces cerevisiae, was transformed with the human estrogen receptor (ERα) gene, together with expression plasmids containing responsive elements and the lacZ reporter gene (encoding the enzyme β-galactosidase). β-galactosidase activity is quantified at 540 nm by the conversion of the chromogenic substance chlorophenol red-β-D-galactopyranoside into chlorophenol red. The bioassay response is expressed as the absorbance at 540 nm divided by the optical density at 630 nm [(A540/A630)net]. The estrogenic activity of the samples was expressed as percentage equivalence to 10 nM estradiol (E2) which elicited a 100% response in the estrogen receptor bioassay. The bioassays were performed in 96-well plates in which 10 μL of the test compounds were tested and incubated with 240 μL of the genetically modified yeast (optical density of 0.25 at 610 nm). Serial dilutions of the test compounds were made in dimethylsulfoxide, which allowed generating dose-response curves for […]. The data were fitted by a 4 parametric logistic model using the Marquardt-Levenberg algorithm (Sigmaplot 4.0, SPSS Inc., Chicago, Ill., USA) (De Boever et al. (2001) Env. Health Perspectives 109, 691-697).
(§3) To further test this transformation, cultures A-D (10% (v/v)) were incubated for 8 days in Brain Heart Infusion broth (with 0.5 g/l cystein-HCl) with either X or IX at a concentration of 25 mg/l under anaerobic conditions and conversion products were detected by HPLC (Table 1). […] However, in culture C almost 40% of 8-PN was recovered, which explains the increase in estrogenic properties of culture C.

The test system of data set [5] is human fecal cultures. The description is as above. As to conditions: all fecal samples A-D, also with autoclaved cultures (non-enzymatic isomerisation). Type of data set: in vitro ADME. The protocol:
as §1, §2, §3

For data set [6] the following is noted: rats, 1000 mg/kg body weight of X; cited from earlier work.

Consider `CC(C)=CCc1c(O)cc(O)c2c1O[C@H](c1ccc(O)cc1)CC2=O` [8-PN, 8-prenylnaringenin], for which, in data set [1], the “Further degradation of 8-PN” value is given as “did not further degrade 8-PN”. Also, the “Further conversion of 8-PN” value in data set [2] is “No further conversion of 8-PN was detected”. For the same compound, the “Concentration needed for harmful in-vivo activity” value in data set [3] was about 100 µg/mL.

For the compound `COc1cc(O)c(CC=C(C)C)c(O)c1C(=O)/C=C/c1ccc(O)cc1` [X, 2′,4,4′-trihydroxy-3′-prenyl-6′-methoxychalcone], the recovery at 8 days, 25 mg/l in data set [4] (human fecal culture A (10% v/v), fecal Sample A) is 74.9%; in data set [4] (human fecal culture B (10% v/v), fecal Sample B), 80.5%; in data set [4] (human fecal culture C (10% v/v), fecal Sample C) it was 73.6%; in data set [4] (human fecal culture D (10% v/v), fecal Sample D), 65.4%. Further, the “Conversion of X to IX” value in data set [5] is listed as “slightly converted to IX”. Also, in data set [6], the “Share of recovered flavonoids in feces that was unchanged X” value is 89%.

The values above are taken from patent publication US8709764B2, “Enzymatic demethylation of flavonoids” (Universiteit Gent, priority 2005, dated 2014).
